According to article PMC7913927, “Leishmanicidal Activity of Betulin Derivatives in Leishmania amazonensis; Effect on Plasma and Mitochondrial Membrane Potential, and Macrophage Nitric Oxide and Superoxide Production” (Microorganisms, 2021):
“And” between values parts separate entries of the source, which are not always exact repeats. Equal entries are not always repeated. Where two headings read alike, the source gives them in different places.

System: VE98MR intracellular amastigotes in J774.1 macrophages
Experiment: Macrophage-amastigote model, patient isolate VE98MR
Format: cell-based, Leishmania amazonensis
Conditions: for Regresion (GraphPad 6) of %Control vs dose (50% inhibitory concentration) / Growth (%) Exp1 %Control / Growth (%) Exp1 A/100MØ / Growth (%) Exp1 A/MØ / Growth (%) Exp1 Infección / Growth (%) Exp2 %Control / Growth (%) Exp2 A/100MØ / Growth (%) Exp2 A/MØ / Growth (%) Exp2 Infección / Growth (%) Exp3 %Control / Growth (%) Exp3 A/100MØ / Growth (%) Exp3 A/MØ / Growth (%) Exp3 Infección / Average A/100MØ: VE98MR; for Regresion (GraphPad 6) of %Control vs dose (50% inhibitory concentration): unit from Dose head; for Average A/100MØ: average of Exp1-3
Protocol: We used a previously described methodology, with some modifications. Macrophage monolayers, grown in RMPIc medium, for 3 days, were detached from the bottom of the culture chamber, by physical treatment (low temperature and light strokes). Obtained macrophages were seeded in flat-bottom 96-well culture plates, at a density of 2 × 10^5 cells mL^−1 (40,000 macrophages/well), in a final volume of 200 µL. Plates were incubated for 2 h, and the supernatant was discarded to remove non-adhered macrophages. Medium was replaced with stationary-phase promastigotes suspended in 200 µL of RPMIc (2 × 10^6 parasites mL^−1, 400,000 parasites/well), at a macrophage: parasite ratio 1:10 [40]. The plates were incubated for 4 h. Afterwards the medium was replaced with fresh RPMIc and increasing concentrations of compounds or drugs tested were applied, in volumes of 2 µL, according to the different treatment groups. Plates were kept for 72 h, at 37 °C and 5% CO2. The medium was discarded and the wells were washed twice with PBS. Next, a Giemsa staining was performed in situ. It consisted of adding 200 µL of methanol/well, incubating for 5 min, discarding the fixative, and letting it dry at room temperature. Later, the Giemsa solution (10% in PBS w/v, 200 µL/well) was added, incubated for 10 min, and washed with PBS, allowing it to dry. Finally, the bottom of the plates was detached by percussion and the circular bottoms (wells) were fixed to slides with Permount synthetic resin, for later evaluation (Alcazar W., manuscript in preparation). Cell counting was performed with a 100× immersion objective. A minimum of 200 random macrophages were examined. The percentage of infected macrophages (% infection) and the average number of amastigotes present in infected macrophages (amastigotes) were determined. […] The infection rate represents the number of intracellular amastigotes per 100 macrophages evaluated. Additionally, the GI50 for the decrease in the infection rate was calculated. At least three independent experiments were performed. The effect of amphotericin-B (AmB) [Sigma-Aldrich, (St. Louis, MO, USA)] was included as positive control of the assay.

C=C(C)C1CCC2(C=NO)CCC3(C)C(CCC4C5(C)CCC(=NO)C(C)(C)C5CCC43C)C12 (stereo not shown) [Compound 18]
SI (CC50/GI50) VE98MR (J774.1 CC50 / intracellular amastigote GI50, Table 2): 27.32 | GI50 (VE98MR intracellular amastigotes, read-out: GI50 (µM) Experiment 1 Regresion): 0.65 µM | GI50 (VE98MR intracellular amastigotes, read-out: GI50 (µM) Experiment 2 Regresion): 1.09 µM | GI50 (VE98MR intracellular amastigotes, read-out: GI50 (µM) Experiment 3 Regresion): 0.89 µM | Regresion (GraphPad 6) of %Control vs dose (50% inhibitory concentration) (Exp1): 0.65 µM | Regresion (GraphPad 6) of %Control vs dose (50% inhibitory concentration) (Exp2): 1.09 µM | Regresion (GraphPad 6) of %Control vs dose (50% inhibitory concentration) (Exp3): 0.89 µM | Growth (%) Exp1 %Control (dose 0.10 µM, Exp1): 72.90% | Growth (%) Exp1 A/100MØ (dose 0.10 µM, Exp1): 117.33 | Growth (%) Exp1 A/MØ (dose 0.10 µM, Exp1): 2.20 | Growth (%) Exp1 Infección (dose 0.10 µM, Exp1): 53.33% | Growth (%) Exp2 %Control (dose 0.10 µM, Exp2): 77.33% | Growth (%) Exp2 A/100MØ (dose 0.10 µM, Exp2): 159.61 | Growth (%) Exp2 A/MØ (dose 0.10 µM, Exp2): 2.67 | Growth (%) Exp2 Infección (dose 0.10 µM, Exp2): 59.78% | Growth (%) Exp3 %Control (dose 0.10 µM, Exp3): 82.84% | Growth (%) Exp3 A/100MØ (dose 0.10 µM, Exp3): 205.27 | Growth (%) Exp3 A/MØ (dose 0.10 µM, Exp3): 3.68 | Growth (%) Exp3 Infección (dose 0.10 µM, Exp3): 55.78% | Average A/100MØ (dose 0.10 µM): 160.74 | Growth (%) Exp1 %Control (dose 0.50 µM, Exp1): 57.32% | Growth (%) Exp1 A/100MØ (dose 0.50 µM, Exp1): 92.25 | Growth (%) Exp1 A/MØ (dose 0.50 µM, Exp1): 2.05 | Growth (%) Exp1 Infección (dose 0.50 µM, Exp1): 45.00% | Growth (%) Exp2 %Control (dose 0.50 µM, Exp2): 61.05% | Growth (%) Exp2 A/100MØ (dose 0.50 µM, Exp2): 125.99 | Growth (%) Exp2 A/MØ (dose 0.50 µM, Exp2): 2.20 | Growth (%) Exp2 Infección (dose 0.50 µM, Exp2): 57.27% | Growth (%) Exp3 %Control (dose 0.50 µM, Exp3): 73.43% | Growth (%) Exp3 A/100MØ (dose 0.50 µM, Exp3): 181.96 | Growth (%) Exp3 A/MØ (dose 0.50 µM, Exp3): 3.24 | Growth (%) Exp3 Infección (dose 0.50 µM, Exp3): 56.16% | Average A/100MØ (dose 0.50 µM): 133.40 | Growth (%) Exp1 %Control (dose 1.00 µM, Exp1): 48.73% | Growth (%) Exp1 A/100MØ (dose 1.00 µM, Exp1): 78.42 | Growth (%) Exp1 A/MØ (dose 1.00 µM, Exp1): 2.26 | Growth (%) Exp1 Infección (dose 1.00 µM, Exp1): 34.70% | Growth (%) Exp2 %Control (dose 1.00 µM, Exp2): 59.91% | Growth (%) Exp2 A/100MØ (dose 1.00 µM, Exp2): 123.65 | Growth (%) Exp2 A/MØ (dose 1.00 µM, Exp2): 2.80 | Growth (%) Exp2 Infección (dose 1.00 µM, Exp2): 44.16% | Growth (%) Exp3 %Control (dose 1.00 µM, Exp3): 42.96% | Growth (%) Exp3 A/100MØ (dose 1.00 µM, Exp3): 106.46 | Growth (%) Exp3 A/MØ (dose 1.00 µM, Exp3): 2.36 | Growth (%) Exp3 Infección (dose 1.00 µM, Exp3): 45.11% | Average A/100MØ (dose 1.00 µM): 102.84 | Growth (%) Exp1 %Control (dose 5.00 µM, Exp1): 16.08% | Growth (%) Exp1 A/100MØ (dose 5.00 µM, Exp1): 25.87 | Growth (%) Exp1 A/MØ (dose 5.00 µM, Exp1): 1.60 | Growth (%) Exp1 Infección (dose 5.00 µM, Exp1): 16.17% | Growth (%) Exp2 %Control (dose 5.00 µM, Exp2): 28.34% | Growth (%) Exp2 A/100MØ (dose 5.00 µM, Exp2): 58.49 | Growth (%) Exp2 A/MØ (dose 5.00 µM, Exp2): 2.35 | Growth (%) Exp2 Infección (dose 5.00 µM, Exp2): 24.89% | Growth (%) Exp3 %Control (dose 5.00 µM, Exp3): 8.53% | Growth (%) Exp3 A/100MØ (dose 5.00 µM, Exp3): 21.14 | Growth (%) Exp3 A/MØ (dose 5.00 µM, Exp3): 1.13 | Growth (%) Exp3 Infección (dose 5.00 µM, Exp3): 18.71% | Average A/100MØ (dose 5.00 µM): 35.17 | Growth (%) Exp1 %Control (dose 10.00 µM, Exp1): 3.99% | Growth (%) Exp1 A/100MØ (dose 10.00 µM, Exp1): 6.42 | Growth (%) Exp1 A/MØ (dose 10.00 µM, Exp1): 1.33 | Growth (%) Exp1 Infección (dose 10.00 µM, Exp1): 4.83% | Growth (%) Exp2 %Control (dose 10.00 µM, Exp2): 9.85% | Growth (%) Exp2 A/100MØ (dose 10.00 µM, Exp2): 20.33 | Growth (%) Exp2 A/MØ (dose 10.00 µM, Exp2): 1.50 | Growth (%) Exp2 Infección (dose 10.00 µM, Exp2): 13.55% | Growth (%) Exp3 %Control (dose 10.00 µM, Exp3): 11.25% | Growth (%) Exp3 A/100MØ (dose 10.00 µM, Exp3): 27.88 | Growth (%) Exp3 A/MØ (dose 10.00 µM, Exp3): 1.35 | Growth (%) Exp3 Infección (dose 10.00 µM, Exp3): 20.65% | Average A/100MØ (dose 10.00 µM): 18.21 | GI50 (intracellular amastigotes, Supplementary Materials II, read-out: GI50 (µM) VE98MR, mean of three experiments): 0.877 µM and 0.88 µM
